Source: BindingDB's records for doi:10.1016/j.bmc.2020.115681 (Takeda Pharmaceuticals International, 2020)
pIC50: −log10 of the molar value.

Assays:
[1] = target: T1, Ubiquitin-like modifier-activating enzyme ATG7 (Homo sapiens, UniProt O95352); test: Inhibition of recombinant His-tagged human ATG7 incubated for 105 mins in presence of GST-tagged ATG3 and Flag-tagged Gabarap and measured after 2 hrs by FRET assay relative to control
T1 sequence (O95352 whole entry): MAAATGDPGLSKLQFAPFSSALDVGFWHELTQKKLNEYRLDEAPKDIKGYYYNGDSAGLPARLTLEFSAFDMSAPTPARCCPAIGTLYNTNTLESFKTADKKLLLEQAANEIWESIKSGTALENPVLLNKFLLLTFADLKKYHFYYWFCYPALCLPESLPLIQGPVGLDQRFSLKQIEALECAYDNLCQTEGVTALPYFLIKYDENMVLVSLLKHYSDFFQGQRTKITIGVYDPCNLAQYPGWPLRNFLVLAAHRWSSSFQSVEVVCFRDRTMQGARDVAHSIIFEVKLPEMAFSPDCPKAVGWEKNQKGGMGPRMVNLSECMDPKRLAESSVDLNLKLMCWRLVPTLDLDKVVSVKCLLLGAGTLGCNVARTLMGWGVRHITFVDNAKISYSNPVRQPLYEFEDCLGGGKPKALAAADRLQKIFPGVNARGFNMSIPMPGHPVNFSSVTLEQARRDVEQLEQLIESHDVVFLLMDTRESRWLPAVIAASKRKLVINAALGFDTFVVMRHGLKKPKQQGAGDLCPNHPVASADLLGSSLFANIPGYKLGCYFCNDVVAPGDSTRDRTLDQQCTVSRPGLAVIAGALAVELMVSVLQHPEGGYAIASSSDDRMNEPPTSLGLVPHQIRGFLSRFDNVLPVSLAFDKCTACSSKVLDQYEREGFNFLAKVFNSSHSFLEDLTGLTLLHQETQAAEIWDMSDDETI

[2] = target: T1, Ubiquitin-like modifier-activating enzyme ATG7; test: Inhibition of ATG7 in human 293HEK cells assessed as inhibition of ATG7:ATG8 thioester formation after 4 hrs by Western blot analysis

pIC50 [1] | pIC50 [2] | Structure (SMILES)
7.46 | – | Cc1cccc(Sc2nn([C@@H]3O[C@H](COS(N)(=O)=O)[C@@H](O)[C@@H]3F)c3ncnc(N)c23)c1 [[(2R,3R,4S,5R)-5-{4-amino-3-[(3-methylphenyl)sulfanyl]-1H-pyrazolo[3,4-d]pyrimidin-1-yl}-4-fluoro-3-hydroxytetrahydrofuran-2-yl]methyl sulfamate]
– | 6.53 | CSc1nn([C@H]2C[C@H](O)[C@H](COS(N)(=O)=O)O2)c2ncnc(N)c12 [{(2S,3S,5R)-5-[4-amino-3-(methylsulfanyl)-1H-pyrazolo[3,4-d]pyrimidin-1-yl]-3-hydroxytetrahydrofuran-2-yl}methyl sulfamate]
